Laboratory results published in ChEMBL document CHEMBL1140084, “Discovery and evaluation of 4-(2-(4-chloro-1H-pyrazol-1-yl)ethylamino)-3-(6-(1-(3-fluoropropyl)piperidin-4-yl)-4-methyl-1H-benzo[d]imidazol-2-yl)pyridin-2(1H)-one (BMS-695735), an orally efficacious inhibitor of insulin-like growth factor-1 receptor kinase with broad spectrum in vivo antitumor …” (J Med Chem, 2008).
Values after ≈ are worked out from the molar mass of the structure shown. Active and inactive are the calls of the source. No cut-off for these calls is given here.

Key:
Mus musculus [1] = test: Induction of glucose homeostasis in mouse assessed as glucose elevation at 50 mg/kg after glucose challenge by OGTT; format: functional, organism-based; set-up: dose 50 mg/kg
Mus musculus [2] = test: Induction of glucose homeostasis in mouse assessed as glucose elevation at 100 mg/kg after glucose challenge by OGTT; format: functional, organism-based; set-up: dose 100 mg/kg
[3] = Antitumor activity against mouse IGFSal cell xenografted nu/nu athymic mouse at 50 mg/kg, po bid for 5 days; format: functional; settings: 120 h, read-out: TGI
[4] = target: Tyrosine-protein kinase ITK/TSK (Homo sapiens, UniProt Q08881); test: Inhibition of GST-tagged Emt
[5] = Antiproliferative activity against transgenic mouse SAL cells overexpressing human IGF1R assessed as [3H]thymidine incorporation after 72 hrs
[6] = target: Insulin-like growth factor 1 receptor (Homo sapiens, UniProt P08069); test: Inhibition of human IGF1R expressed in transgenic mouse IGFSal cells; format: cell-based
Cytochrome P450 3A4 = Cytochrome P450 3A4 (Homo sapiens, UniProt P08684); test: Inhibition of human recombinant CYP3A4 in human liver microsomes using BFC as a substrate
Sequence of Cytochrome P450 3A4 (P08684 whole entry): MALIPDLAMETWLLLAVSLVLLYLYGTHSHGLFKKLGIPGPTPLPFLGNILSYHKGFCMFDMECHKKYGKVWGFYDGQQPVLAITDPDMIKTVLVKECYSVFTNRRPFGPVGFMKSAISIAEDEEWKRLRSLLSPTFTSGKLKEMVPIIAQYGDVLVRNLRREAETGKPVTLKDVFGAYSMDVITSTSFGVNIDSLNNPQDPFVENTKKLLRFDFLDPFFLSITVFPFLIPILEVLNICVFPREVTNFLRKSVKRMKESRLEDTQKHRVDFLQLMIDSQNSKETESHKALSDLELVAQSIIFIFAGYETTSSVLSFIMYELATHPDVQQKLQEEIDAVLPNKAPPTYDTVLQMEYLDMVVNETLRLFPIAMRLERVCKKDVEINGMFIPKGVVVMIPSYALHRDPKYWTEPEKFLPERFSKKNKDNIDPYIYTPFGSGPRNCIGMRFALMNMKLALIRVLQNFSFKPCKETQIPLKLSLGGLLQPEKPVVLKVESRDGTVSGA

[7] = target: T1, Nuclear receptor subfamily 1 group I member 2 (Homo sapiens, UniProt O75469); test: Induction of PXR transactivation
T1 sequence (O75469 whole entry): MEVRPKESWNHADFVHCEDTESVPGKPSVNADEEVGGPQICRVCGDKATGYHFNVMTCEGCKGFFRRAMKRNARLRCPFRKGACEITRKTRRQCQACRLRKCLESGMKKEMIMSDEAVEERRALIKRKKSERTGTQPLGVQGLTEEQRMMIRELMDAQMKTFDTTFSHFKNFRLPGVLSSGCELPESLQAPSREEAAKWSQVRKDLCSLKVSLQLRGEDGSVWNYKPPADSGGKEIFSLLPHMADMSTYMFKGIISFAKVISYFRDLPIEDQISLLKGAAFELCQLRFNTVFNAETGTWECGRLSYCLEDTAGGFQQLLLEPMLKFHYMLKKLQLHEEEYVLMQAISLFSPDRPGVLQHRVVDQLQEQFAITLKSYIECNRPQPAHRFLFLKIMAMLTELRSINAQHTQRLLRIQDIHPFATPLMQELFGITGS

[8] = AUC in mouse at 20 mg/kg after 4 hrs; format: ADME, organism-based; set-up: time < 4 hr, dose 20 mg/kg; settings: plasma
[9] = Protein binding in mouse plasma at 10 uM by equilibrium dialysis; format: ADME, cell-free; settings: read-out: PPB (converted)
[10] = Oral bioavailability in mouse at 50 mg/kg; format: ADME, organism-based; settings: in vivo
[11] = Cmax in mouse at 50 mg/kg, po; format: ADME, organism-based; set-up: dose 50 mg/kg, route oral; settings: in vivo
[12] = Total clearance in mouse at 5 mg/kg, iv and 50 mg/kg, po; format: ADME, organism-based; settings: in vivo
[13] = Volume of distribution at steady state in mouse at 5 mg/kg, iv and 50 mg/kg, po; format: ADME, organism-based; settings: in vivo, read-out: Vdss
[14] = Half life in mouse at 5 mg/kg, iv and 50 mg/kg, po; format: ADME, organism-based; settings: in vivo
[15] = Oral bioavailability in rat at 10 mg/kg; format: ADME, organism-based; settings: in vivo
[16] = Cmax in rat at 10 mg/kg, po; format: ADME, organism-based; set-up: dose 10 mg/kg, route oral; settings: in vivo
[17] = Total clearance in rat at 2 mg/kg, iv and 10 mg/kg, po; format: ADME, organism-based; settings: in vivo
[18] = Volume of distribution at steady state in rat at 2 mg/kg, iv and 10 mg/kg, po; format: ADME, organism-based; settings: in vivo, read-out: Vdss
[19] = Half life in rat at 2 mg/kg, iv and 10 mg/kg, po; format: ADME, organism-based; settings: in vivo
[20] = Oral bioavailability in dog at 10 mg/kg; format: ADME, organism-based, Canis lupus familiaris; settings: in vivo
[21] = Cmax in dog at 10 mg/kg, po; format: ADME, organism-based, Canis lupus familiaris; set-up: dose 10 mg/kg, route oral; settings: in vivo
[22] = Total clearance in dog at 2 mg/kg, iv and 10 mg/kg, po; format: ADME, organism-based, Canis lupus familiaris; settings: in vivo
[23] = Volume of distribution at steady state in dog at 2 mg/kg, iv and 10 mg/kg, po; format: ADME, organism-based, Canis lupus familiaris; settings: in vivo, read-out: Vdss
[24] = Half life in dog at 2 mg/kg, iv and 10 mg/kg, po; format: ADME, organism-based, Canis lupus familiaris; settings: in vivo
[25] = Oral bioavailability in monkey at 10 mg/kg; format: ADME, organism-based, Macaca mulatta; settings: rhesus monkey, in vivo
[26] = Cmax in monkey at 10 mg/kg, po; format: ADME, organism-based, Macaca mulatta; set-up: dose 10 mg/kg, route oral; settings: rhesus monkey, in vivo
[27] = Total clearance in monkey at 2 mg/kg, iv and 10 mg/kg, po; format: ADME, organism-based, Macaca mulatta; settings: rhesus monkey, in vivo
[28] = Volume of distribution at steady state in monkey at 2 mg/kg, iv and 10 mg/kg, po; format: ADME, organism-based, Macaca mulatta; settings: rhesus monkey, in vivo, read-out: Vdss
[29] = Half life in monkey at 2 mg/kg, iv and 10 mg/kg, po; format: ADME, organism-based, Macaca mulatta; settings: rhesus monkey, in vivo
[30] = Inhibition of IRK
[31] = target: Protein kinase C alpha type (Homo sapiens, UniProt P17252); test: Inhibition of PKCalpha
[32] = target: Protein kinase C delta type (Homo sapiens, UniProt Q05655); test: Inhibition of PKCdelta
[33] = target: cAMP-dependent protein kinase catalytic subunit beta (Homo sapiens, UniProt P22694); test: Inhibition of PKA-B
[34] = Inhibition of GST-tagged IKK
[35] = target: RAC-alpha serine/threonine-protein kinase (Homo sapiens, UniProt P31749); test: Inhibition of AKT
[36] = target: Mitogen-activated protein kinase 14 (Homo sapiens, UniProt Q16539); test: Inhibition of p38alpha
Sequence of Mitogen-activated protein kinase 14 (Q16539 whole entry): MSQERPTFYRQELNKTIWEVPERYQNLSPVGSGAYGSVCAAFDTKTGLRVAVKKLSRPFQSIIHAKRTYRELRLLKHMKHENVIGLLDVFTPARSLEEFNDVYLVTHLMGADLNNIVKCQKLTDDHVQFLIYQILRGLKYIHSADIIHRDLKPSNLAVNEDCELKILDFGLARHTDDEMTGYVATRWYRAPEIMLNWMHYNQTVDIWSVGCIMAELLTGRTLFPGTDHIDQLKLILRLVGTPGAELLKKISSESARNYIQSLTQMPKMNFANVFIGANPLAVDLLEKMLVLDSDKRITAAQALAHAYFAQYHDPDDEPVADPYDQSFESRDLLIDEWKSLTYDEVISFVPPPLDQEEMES

[37] = target: MAP kinase-activated protein kinase 2 (Homo sapiens, UniProt P49137); test: Inhibition of MK2
[38] = target: Vascular endothelial growth factor receptor 2 (Homo sapiens, UniProt P35968); test: Inhibition of GST-tagged KDR
[39] = target: Fibroblast growth factor receptor 1 (Homo sapiens, UniProt P11362); test: Inhibition of human recombinant FGFR1
[40] = target: Epidermal growth factor receptor (Homo sapiens, UniProt P00533); test: Inhibition of GST-tagged HER1
Sequence of Epidermal growth factor receptor (P00533 whole entry): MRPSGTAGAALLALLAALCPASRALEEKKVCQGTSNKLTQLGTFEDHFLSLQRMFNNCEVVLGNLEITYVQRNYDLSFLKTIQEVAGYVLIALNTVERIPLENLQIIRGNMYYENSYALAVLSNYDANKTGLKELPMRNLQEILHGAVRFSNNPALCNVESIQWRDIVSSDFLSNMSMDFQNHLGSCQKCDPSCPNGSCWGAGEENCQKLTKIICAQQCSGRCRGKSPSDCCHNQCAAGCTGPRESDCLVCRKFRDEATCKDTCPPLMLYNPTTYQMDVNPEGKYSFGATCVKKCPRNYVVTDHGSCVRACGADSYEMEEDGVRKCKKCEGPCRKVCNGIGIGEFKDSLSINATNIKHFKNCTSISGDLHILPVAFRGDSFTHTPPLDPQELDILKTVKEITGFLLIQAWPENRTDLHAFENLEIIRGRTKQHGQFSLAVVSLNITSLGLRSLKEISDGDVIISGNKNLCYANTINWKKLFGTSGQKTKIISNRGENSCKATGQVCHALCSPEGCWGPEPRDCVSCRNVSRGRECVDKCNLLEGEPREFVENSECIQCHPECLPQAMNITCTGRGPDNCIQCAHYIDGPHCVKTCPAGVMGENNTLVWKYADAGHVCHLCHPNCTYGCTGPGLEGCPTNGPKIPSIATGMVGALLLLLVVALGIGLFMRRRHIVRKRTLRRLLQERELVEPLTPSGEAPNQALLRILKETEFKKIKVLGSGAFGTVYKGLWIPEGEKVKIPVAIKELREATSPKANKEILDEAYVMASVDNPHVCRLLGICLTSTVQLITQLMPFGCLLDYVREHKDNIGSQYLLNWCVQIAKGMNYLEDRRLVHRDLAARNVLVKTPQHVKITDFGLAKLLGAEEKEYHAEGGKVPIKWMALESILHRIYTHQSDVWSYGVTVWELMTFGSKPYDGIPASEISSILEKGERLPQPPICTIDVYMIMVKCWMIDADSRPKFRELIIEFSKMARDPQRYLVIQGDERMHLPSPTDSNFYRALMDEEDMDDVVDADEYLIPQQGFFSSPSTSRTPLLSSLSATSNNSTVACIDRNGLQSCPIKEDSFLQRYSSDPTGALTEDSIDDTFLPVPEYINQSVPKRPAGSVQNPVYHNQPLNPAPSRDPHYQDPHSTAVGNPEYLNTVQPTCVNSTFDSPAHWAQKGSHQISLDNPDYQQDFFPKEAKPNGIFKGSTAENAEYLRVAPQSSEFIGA

[41] = target: Receptor tyrosine-protein kinase erbB-2 (Homo sapiens, UniProt P04626); test: Inhibition of GST-tagged HER2
[42] = target: Hepatocyte growth factor receptor (Homo sapiens, UniProt P08581); test: Inhibition of GST-tagged Met
Sequence of Hepatocyte growth factor receptor (P08581 whole entry): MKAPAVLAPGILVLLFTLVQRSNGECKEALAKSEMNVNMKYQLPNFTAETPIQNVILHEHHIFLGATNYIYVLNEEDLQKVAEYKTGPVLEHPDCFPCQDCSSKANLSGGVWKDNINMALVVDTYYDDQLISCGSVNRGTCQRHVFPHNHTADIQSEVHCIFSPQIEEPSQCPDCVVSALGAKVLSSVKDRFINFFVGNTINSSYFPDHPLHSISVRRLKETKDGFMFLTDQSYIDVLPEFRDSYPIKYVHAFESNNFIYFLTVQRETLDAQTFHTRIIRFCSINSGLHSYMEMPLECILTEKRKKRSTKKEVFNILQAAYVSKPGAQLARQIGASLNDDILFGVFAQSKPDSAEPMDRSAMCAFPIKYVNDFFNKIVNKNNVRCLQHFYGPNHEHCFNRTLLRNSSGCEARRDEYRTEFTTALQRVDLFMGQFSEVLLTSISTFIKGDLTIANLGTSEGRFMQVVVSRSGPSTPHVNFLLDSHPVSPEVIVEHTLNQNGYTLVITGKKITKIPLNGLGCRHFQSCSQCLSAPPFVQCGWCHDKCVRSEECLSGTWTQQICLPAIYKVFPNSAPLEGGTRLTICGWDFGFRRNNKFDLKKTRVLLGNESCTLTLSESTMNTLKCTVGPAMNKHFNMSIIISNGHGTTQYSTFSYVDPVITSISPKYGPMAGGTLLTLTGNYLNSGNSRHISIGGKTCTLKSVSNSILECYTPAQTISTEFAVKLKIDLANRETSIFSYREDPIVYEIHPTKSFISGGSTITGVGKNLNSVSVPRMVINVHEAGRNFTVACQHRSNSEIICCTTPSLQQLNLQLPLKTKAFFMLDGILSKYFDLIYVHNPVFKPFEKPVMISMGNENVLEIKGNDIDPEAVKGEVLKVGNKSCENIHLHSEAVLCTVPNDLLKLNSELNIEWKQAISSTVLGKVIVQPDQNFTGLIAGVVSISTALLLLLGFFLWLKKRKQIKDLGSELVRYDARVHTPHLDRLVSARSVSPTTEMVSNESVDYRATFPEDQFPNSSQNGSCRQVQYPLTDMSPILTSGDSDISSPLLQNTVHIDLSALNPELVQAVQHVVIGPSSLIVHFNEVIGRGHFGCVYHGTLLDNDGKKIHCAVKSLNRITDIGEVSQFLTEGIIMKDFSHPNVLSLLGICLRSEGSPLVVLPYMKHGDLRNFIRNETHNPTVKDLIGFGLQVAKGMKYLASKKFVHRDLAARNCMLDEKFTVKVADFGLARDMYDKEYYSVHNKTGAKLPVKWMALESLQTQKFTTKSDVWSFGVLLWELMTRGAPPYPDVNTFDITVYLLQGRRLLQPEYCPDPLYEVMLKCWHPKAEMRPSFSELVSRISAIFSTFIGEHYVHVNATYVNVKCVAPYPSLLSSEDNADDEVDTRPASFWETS

[43] = Inhibition of His-tagged GSK3
Phosphodiesterase 4 = Phosphodiesterase 4 (Homo sapiens, UniProt P27815+Q08499+Q07343+Q08493); test: Inhibition of human PDE4 in U937 cells; format: cell-based; settings: u-937
COLO 205 = test: Antitumor activity against human Colo205 cell xenografted nu/nu athymic mouse at 100 mg/kg, po bid for 21 days; format: functional; settings: COLO 205, 504 h, read-out: TGI
[44] = Antitumor activity against human JJN3 cell xenografted nu/nu athymic mouse at 100 mg/kg, po bid for 21 days; format: functional; settings: JJN-3, 504 h, read-out: TGI
[45] = Antitumor activity against human Geo cell xenografted nu/nu athymic mouse at 100 mg/kg, po bid for 21 days; format: functional; settings: 504 h, read-out: TGI
Cytochrome P450 1A2 = Cytochrome P450 1A2 (Homo sapiens, UniProt P05177); test: Inhibition of human recombinant CYP1A2 in human liver microsomes; format: ADME, Microsome
Sequence of Cytochrome P450 1A2 (P05177 whole entry): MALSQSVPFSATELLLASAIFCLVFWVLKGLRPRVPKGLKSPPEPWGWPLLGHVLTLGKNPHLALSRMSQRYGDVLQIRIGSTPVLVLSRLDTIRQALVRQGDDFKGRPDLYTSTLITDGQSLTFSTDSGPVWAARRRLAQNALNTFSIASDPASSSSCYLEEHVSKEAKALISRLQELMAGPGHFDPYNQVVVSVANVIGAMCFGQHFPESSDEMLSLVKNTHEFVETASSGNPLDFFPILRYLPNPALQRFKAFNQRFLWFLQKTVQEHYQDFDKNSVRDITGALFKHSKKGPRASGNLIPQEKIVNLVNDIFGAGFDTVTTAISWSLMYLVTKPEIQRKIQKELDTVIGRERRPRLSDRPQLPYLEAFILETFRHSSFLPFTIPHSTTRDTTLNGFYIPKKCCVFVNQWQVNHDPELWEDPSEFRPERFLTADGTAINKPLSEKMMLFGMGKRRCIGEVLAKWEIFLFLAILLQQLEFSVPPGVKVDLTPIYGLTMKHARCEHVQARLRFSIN

Cytochrome P450 2C9 = Cytochrome P450 2C9 (Homo sapiens, UniProt P11712); test: Inhibition of human recombinant CYP2C9 in human liver microsomes; format: ADME, Microsome
Cytochrome P450 2C19 = Cytochrome P450 2C19 (Homo sapiens, UniProt P33261); test: Inhibition of human recombinant CYP2C19 in human liver microsomes; format: ADME, Microsome
Cytochrome P450 2D6 = Cytochrome P450 2D6 (Homo sapiens, UniProt P10635); test: Inhibition of human recombinant CYP2D6 in human liver microsomes; format: ADME, Microsome
[46] = Apparent permeability across human CaCo2 cells; format: ADME, cell-based; settings: Caco-2
[47] = Aqueous solubility of the compound; format: physicochemical; settings: buffer
Hepatocyte = test: Cytotoxicity against human hepatocytes; format: cell-based
Mus musculus [48] = test: Induction of glucose homeostasis in mouse assessed as glucose elevation at 50 to 100 mg/kg prior to glucose challenge by OGTT; format: functional, organism-based
Focal adhesion kinase 1 = Focal adhesion kinase 1 (Homo sapiens, UniProt Q05397)
Sequence of Focal adhesion kinase 1 (Q05397 whole entry): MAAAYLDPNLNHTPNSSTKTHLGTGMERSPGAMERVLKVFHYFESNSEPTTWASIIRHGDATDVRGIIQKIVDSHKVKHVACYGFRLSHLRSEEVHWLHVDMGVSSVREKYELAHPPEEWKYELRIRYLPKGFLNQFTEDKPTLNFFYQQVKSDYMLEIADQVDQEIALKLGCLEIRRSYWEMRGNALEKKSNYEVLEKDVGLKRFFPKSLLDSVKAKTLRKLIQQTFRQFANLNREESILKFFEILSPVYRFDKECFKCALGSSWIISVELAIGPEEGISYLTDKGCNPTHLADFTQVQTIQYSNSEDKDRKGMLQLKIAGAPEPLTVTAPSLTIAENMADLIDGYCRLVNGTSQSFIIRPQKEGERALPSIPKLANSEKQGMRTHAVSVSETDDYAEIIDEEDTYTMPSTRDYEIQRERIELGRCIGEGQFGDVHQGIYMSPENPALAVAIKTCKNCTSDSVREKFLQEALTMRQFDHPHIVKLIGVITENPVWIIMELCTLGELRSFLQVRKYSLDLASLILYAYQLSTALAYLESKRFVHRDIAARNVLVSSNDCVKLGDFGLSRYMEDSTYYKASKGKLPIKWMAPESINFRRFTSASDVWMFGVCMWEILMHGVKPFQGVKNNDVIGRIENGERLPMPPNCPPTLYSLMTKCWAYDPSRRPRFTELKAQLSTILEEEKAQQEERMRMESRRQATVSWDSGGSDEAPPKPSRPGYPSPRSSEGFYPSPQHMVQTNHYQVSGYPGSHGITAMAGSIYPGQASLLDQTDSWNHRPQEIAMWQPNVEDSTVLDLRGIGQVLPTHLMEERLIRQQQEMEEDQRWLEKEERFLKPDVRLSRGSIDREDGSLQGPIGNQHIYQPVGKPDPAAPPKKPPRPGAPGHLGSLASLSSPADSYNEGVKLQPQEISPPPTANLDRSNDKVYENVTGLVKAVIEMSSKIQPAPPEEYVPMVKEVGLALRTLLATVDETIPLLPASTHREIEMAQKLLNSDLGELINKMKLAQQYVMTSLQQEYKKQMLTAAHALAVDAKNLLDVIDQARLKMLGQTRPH

Which results are given for `Cc1cc(C2CCN(CCCF)CC2)cc2[nH]c(-c3c(NCCn4cc(Cl)cn4)cc[nH]c3=O)nc12`?
Activity (Mus musculus [1]): inactive; Activity (Mus musculus [2]): inactive; inhibition in vivo at 50 mg/kg [3]: 81%; IC50 [4]: 0.37 µM; IC50 [5]: 0.185 µM; IC50 [6]: 0.034 µM; IC50 (Cytochrome P450 3A4): 26 µM; EC20 [7]: > 50 µM; AUC at 4 h [8]: 3.7 µM·h; fraction unbound at 10 µM [9]: 0.131; bioavailability [10]: > 100%; Cmax [11]: 2300 nM; clearance [12]: 159 mL/min/kg; Vd [13]: 18.2 L/kg; half-life [14]: 2.3 h; bioavailability [15]: 23%; Cmax [16]: 200 nM; clearance [17]: 76 mL/min/kg; Vd [18]: 20 L/kg; half-life [19]: 4 h; bioavailability [20]: 35%; Cmax [21]: 270 nM; clearance [22]: 23 mL/min/kg; Vd [23]: 21 L/kg; half-life [24]: 10.5 h; bioavailability [25]: 48%; Cmax [26]: 400 nM; clearance [27]: 27 mL/min/kg; Vd [28]: 17 L/kg; half-life [29]: 7.3 h; IC50 [30]: 0.072 µM; IC50 [31]: 11 µM; IC50 [32]: 20.3 µM; IC50 [33]: 37.7 µM; IC50 [34]: > 100 µM; IC50 [35]: 48.4 µM; IC50 [36]: 31 µM; IC50 [37]: > 50 µM; IC50 [38]: 0.369 µM; IC50 [39]: < 5 µM; IC50 [40]: 21 µM; IC50 [41]: 6 µM; IC50 [42]: 3.99 µM; IC50 [43]: 8.56 µM; IC50 (Phosphodiesterase 4): 4 µM; inhibition in vivo at 100 mg/kg (COLO 205): 93%; inhibition in vivo at 100 mg/kg [44]: 80%; inhibition in vivo at 100 mg/kg [45]: 73%; IC50 (Cytochrome P450 1A2): > 40 µM; IC50 (Cytochrome P450 2C9): > 40 µM; IC50 (Cytochrome P450 2C19): 34 µM; IC50 (Cytochrome P450 2D6): > 40 µM; Papp [46]: 10.9 ×10⁻⁶ cm/s; solubility [47]: 137 µg/mL (≈ 268 µM); Activity (Hepatocyte): Non-toxic; Activity (Mus musculus [48]): inactive; IC50 (Focal adhesion kinase 1): 0.165 µM

Which results are given for `Cc1cc(C2CCN(CCCF)CC2)cc2[nH]c(-c3c(NC[C@@H](O)c4cccc(Cl)c4)cc[nH]c3=O)nc12`?
IC50 [5]: 0.076 µM; EC20 [7]: > 50 µM

For `COCCN1CCC(c2cc(C)c3nc(-c4c(NCCn5cc(Cl)cn5)cc[nH]c4=O)[nH]c3c2)CC1`, which IC50 [5] is on record?
Its IC50 is 0.046 µM.

And the IC50 (Cytochrome P450 3A4)?
The IC50 was 19.5 µM.

What about the EC20 [7] of the same compound?
The EC20 was greater than 50 µM.

What about the AUC at 4 h [8] of the same compound?
Its AUC at 4 h is 1.8 µM·h.

And the fraction unbound at 10 µM [9]?
The fraction unbound at 10 µM was 0.038.

For `Cc1cc(C2CCN(CCO)CC2)cc2[nH]c(-c3c(NCCn4cc(Cl)cn4)cc[nH]c3=O)nc12`, which IC50 [5] is on record?
The IC50 was 0.241 µM.

What about the IC50 (Cytochrome P450 3A4) of the same compound?
The IC50 was 23 µM.

What about the EC20 [7] of the same compound?
Its EC20 is greater than 50 µM.

What about the AUC at 4 h [8] of the same compound?
The AUC at 4 h was 0.1 µM·h.

Which IC50 [5] does the source give for `COCCN1CCC(c2cc(C)c3nc(-c4c(NC[C@@H](O)c5ccc(OC)c(Cl)c5)cc[nH]c4=O)[nH]c3c2)CC1` here?
The IC50 was 0.013 µM.

And the IC50 (Cytochrome P450 3A4)?
Its IC50 is 7.7 µM.

What about the EC20 [7] of the same compound?
The EC20 was greater than 50 µM.

What about the AUC at 4 h [8] of the same compound?
Its AUC at 4 h is 0.49 µM·h.
